# Assay: RP, Waters SunFire C18, 50 × 4.6 mm, 3.5 µm, 0.5 mL/min, estimated dead time 1.1 min; A: water + 0.1% formic acid; B: acetonitrile + 0.1% formic acid; gradient (min/%B) 0/5 7/100 8/100
# Details: stereoisomer not certain
row,LC retention time,SMILES
1,7.48 min,CCCCCC1=CC(=O)C=C(OC)C12C(=O)Oc1cc(O)c(C(=O)O)c(CCCCC)c12 (configuration not stated)
2,5.06 min,O=C(O)c1cc(O)c2c(c1)C(=O)c1cc(O)cc(O)c1C2=O
3,4.75 min,COc1cc(O)c2c(c1)C(=O)c1c(O)c(C)cc(O)c1C2=O
4,5.65 min,CC1CCCCCCCCCCC(O)C(O)C(O)C=CC(=O)O1 (configuration not stated)
5,7.49 min,COC(=O)C(=C1OC(=O)C(c2ccccc2)=C1O)c1ccccc1
6,5.08 min,O=C1NC(c2ccccc2)CC(=O)N2CCCC2C(=O)NC(c2ccccc2)CC(=O)N2CCCC12 (configuration not stated)
7,8 min,CC1C(=O)OC(CCCCCCCCCC(C)(C)C)C1C(=O)O (configuration not stated)
8,4.69 min,Cc1cc(OC(=O)c2c(C)cc(O)c(O)c2O)cc(O)c1C(=O)O
9,4.63 min,COC(=O)c1c(C)cc(O)cc1O
10,7.28 min,CCCCCc1cc(OC(=O)c2c(O)cc(O)cc2CCCCC)cc(O)c1C(=O)O
11,7.26 min,COc1cc(C)c(C(=O)Oc2cc(C)c(C(=O)O)c(O)c2C)c(O)c1C
12,4.15 min,CCCc1cc(O)cc(O)c1C(=O)O
13,4.05 min,OCC(O)C(O)CO (configuration not stated)
14,7.14 min,COC(=O)c1c(C)cc(OC(=O)c2c(C)cc(O)c(C=O)c2O)c(C)c1O
15,6.28 min,Cc1cc(O)c(C=O)c2c1C(=O)Oc1c(COC(=O)CCC(=O)O)c(O)c(C(=O)O)c(C)c1O2
16,6.62 min,CCCCCC(=O)Cc1cc(O)c(O)c2c1C(=O)Oc1cc(O)c(C(=O)O)c(CCCCC)c1O2
17,6.71 min,COC(=O)C(=C1OC(=O)C(c2ccc(OC)cc2)=C1O)c1ccccc1
18,6.57 min,Cc1cc(O)c2c(c1)C(=O)c1c(c(O)cc(O)c1-c1c(O)cc(O)c3c1C(=O)c1cc(C)cc(O)c1C3=O)C2=O
19,5.3 min,Cc1cc(O)c(C=O)c2c1C(=O)Oc1c(C)c(O)c3c(c1O2)C(O)OC3=O (configuration not stated)
20,4.52 min,Cc1cc(OC(=O)c2c(C)cc(O)cc2O)cc(O)c1C(=O)OCC(O)C(O)CO (configuration not stated)
21,7.26 min,Cc1cc(O)c(C=O)c(O)c1C(=O)OCc1cc(O)c(C=O)c(O)c1C(=O)O
22,6.53 min,C=C1C(=O)OC(CCCCCCCCCCCCCC(C)O)C1C(=O)O (configuration not stated)
23,4.65 min,Cc1cc(=O)c2c(O)cc(O)c(C)c2o1

row,LC retention time,SMILES
1,4.9 min,O=C1c2cc(O)cc(O)c2C(=O)c2c(O)cc(CO)cc21
2,7.27 min,CCOCc1c(O)c(C(=O)O)c(C)c2c1OC(=O)c1c(C)cc(O)c(C=O)c1O2
3,6.34 min,Cc1cc(O)c2c(=O)c3c(C)cc(O)cc3oc2c1
4,6.6 min,COc1cc(CCC(C(=O)[O-])[N+](C)(C)C)cc(OC)c1O (configuration not stated)
5,6.37 min,COc1cc(C)c(C(=O)Oc2c(C)c(C(=O)O)c(O)c(C=O)c2O)c(O)c1C=O
6,7.09 min,COc1cc(C)c(C(=O)Oc2cc(C)c(C(=O)O)c(O)c2C)c(OC)c1C
7,4.5 min,COc1c(O)c(O)c2c(c1O)C(=O)c1oc(C(C)=O)c(O)c1C2=O
8,4.01 min,Cc1cc(O)c2c(oc3cc(O)c(C(=O)O)c(C)c32)c1C(=O)O
9,5.08 min,COc1cc(C(=O)O)c2c(c1C)OC(=O)c1c(C)cc(O)c(C=O)c1O2
10,4.51 min,Cc1cc(O)c(C=O)c2c1C(=O)Oc1c(CO)c(O)c3c(c1O2)C(O)OC3=O (configuration not stated)
11,7.27 min,CC(=O)C1=C(O)C=C2Oc3c(C(C)=O)c(O)c(C)c(O)c3C2(C)C1=O (configuration not stated)
12,4.52 min,O=C1c2oc3cc(O)c(O)cc3c2C(=O)c2oc3cc(O)c(O)cc3c21
13,3.25 min,Cc1cc(O)c(C)c(O)c1
14,7.64 min,O=C1OC2=C(c3ccccc3)C(=O)OC2=C1c1ccccc1
15,6 min,COc1cc(C)c(C(=O)Oc2cc(C)c(C(=O)O)c(O)c2)c(O)c1
16,7.33 min,CCCc1cc(OC(=O)c2c(O)cc(OC)cc2CCC)cc(O)c1C(=O)O
17,4 min,CC(=O)OC1C(Oc2cc3oc(C)cc(=O)c3c(O)c2C)OC(CO)C(O)C1O (configuration not stated)
18,6.6 min,CCCCCc1cc(OC(=O)c2c(CCCCC)cc(O)cc2OC)cc(OC)c1C(=O)O
19,6.94 min,COc1cc(C)c2c(=O)c3c(O)cc(OC)cc3oc2c1
20,7.09 min,CCCCCc1c(C(=O)O)c(O)cc2oc3cc(OC)cc(CCC)c3c12
21,4.93 min,COc1cc(C)c2c(c1C=O)Oc1c(c(C)c(O)c3c1C(O)OC3=O)OC2=O (configuration not stated)
22,7.52 min,CCCCCc1cc(OC(=O)c2c(CCCCC)cc(OC)cc2OC)cc(OC)c1C(=O)O
23,7.11 min,CCCc1cc(OC)cc(O)c1C(=O)Oc1c(O)cc(CCC)c(C(=O)OC)c1O

row,LC retention time,SMILES
1,7.31 min,CCCCCc1cc(OC(=O)c2c(O)cc(OC)cc2CCC(=O)CC)cc(O)c1C(=O)O
2,5.36 min,COc1cc(O)c2c(c1)C(=O)c1cc(CO)cc(O)c1C2=O
3,4.41 min,COC1=CC(=O)c2c(O)c3c(c(O)c2C1=O)CC(C)OC3=O (configuration not stated)
4,5.7 min,COc1cc(C)c(C(=O)Oc2c(C)cc(O)c(C=O)c2O)c(O)c1C(=O)O
5,7.1 min,CCCCCC(=O)Cc1cc(OC)cc(O)c1C(=O)Oc1cc(CCCCC)c(C(=O)O)c(OC)c1
6,5.63 min,COC(=O)c1c(OC)cc2oc3c(C(=O)O)c(C)cc(OC)c3c2c1C
7,5.8 min,COc1cc(C)c(C(=O)Oc2c(C)c(C(=O)O)c(O)c(C=O)c2O)c(O)c1C(=O)O
8,6.54 min,COc1cc(C)c(C(=O)Oc2cc(C)c(C(=O)O)c(O)c2)c(O)c1C
9,6.84 min,CCCCCc1cc(O)c(OC(=O)c2c(CCC)cc(OC)cc2OC)c(O)c1C(=O)O
10,6 min,COC(=O)C12Oc3ccc(-c4ccc5c(c4O)C(O)=C4C(=O)CC(C)C(O)C4(C(=O)OC)O5)c(O)c3C(O)=C1C(=O)CC(C)C2O (configuration not stated)
11,7.74 min,COC(=O)c1c(C)cc(OC(=O)c2c(C)cc(OC(=O)c3c(C)cc(OC)cc3O)cc2O)cc1O
12,6.9 min,CC(=O)CCCCCCCCCCCCCC1OC(=O)C(C)=C1C(=O)O (configuration not stated)
13,5.63 min,Cc1cc(O)cc(O)c1C(=O)Oc1cc(C)c(C(=O)Oc2c(O)cc(O)c(C(=O)O)c2C)c(O)c1
14,6.2 min,COc1cc(OC(=O)c2c(C)cc(O)cc2O)cc(C)c1C(=O)Oc1cc(C)c(C(=O)O)c(O)c1
15,7.08 min,COC12CC(=O)C(C(C)=O)=C(O)C1(C)c1c(O)c(C)c(O)c(C(C)=O)c1O2 (configuration not stated)
16,4.69 min,CC(=O)OCC1OC(Oc2cc3oc(C)cc(=O)c3c(O)c2C)C(OC(C)=O)C(O)C1O (configuration not stated)
17,5.99 min,COCc1c(O)c(C(=O)O)c(C)c2c1OC(=O)c1c(C)cc(O)c(C=O)c1O2
18,4.51 min,COc1cc(OC)c2c(=O)cc(C)oc2c1C
19,6.35 min,COc1cc(C)c(C(=O)Oc2cc(C)c(C(=O)O)c(O)c2C)c(O)c1C=O
20,5.15 min,Cc1cc(O)cc2oc3cc(O)cc(O)c3c(=O)c12
21,4.27 min,COC1=C(O)c2cc3oc(C(C)=O)c(O)c3c(O)c2C(=O)C1=O
22,7.65 min,COC(=O)C(Cc1ccccc1)NC(=O)C(=C1OC(=O)C(c2ccccc2)=C1O)c1ccccc1 (configuration not stated)
23,5.27 min,Cc1cc(O)c(C)c2c1C(=O)Oc1cc(O)c(C(=O)O)c(C)c1O2

row,LC retention time,SMILES
1,5.4 min,CC(=O)OCC1OC(Oc2cc(O)c3c(=O)cc(C)oc3c2C)C(OC(C)=O)C(OC(C)=O)C1O (configuration not stated)
2,6.25 min,CCC(C)C(NC(=O)c1ccccc1)C(=O)NC(COC(=O)c1ccccc1)C(C)C (configuration not stated)
3,6.04 min,Cc1cc(O)c(C=O)c2c1C(=O)Oc1c(COC(=O)C=CC(=O)O)c(O)c(C(=O)O)c(C)c1O2
4,5.81 min,CCCCCc1c(Oc2cc(OC)cc3c2C(=O)OC3(O)CCCC)c(O)cc(O)c1C(=O)O (configuration not stated)
5,5.79 min,COc1cc(C)c(C(=O)Oc2cc(C)c(C(=O)O)c(O)c2C)c(O)c1C(=O)O
6,4.23 min,COC1=CC(=O)c2c(O)c3c(c(O)c2C1=O)C(O)C(C)OC3=O (configuration not stated)
7,4.2 min,CC(=O)OCC1OC(Oc2c(C)c(O)c3c(=O)cc(C)oc3c2C)C(O)C(O)C1O (configuration not stated)
8,6.95 min,CCCCCCCCCCC1CC(C(=O)O)C(C)C(=O)O1 (configuration not stated)
9,7.68 min,O=C1OC(=C2C(=O)Oc3ccccc32)C(O)=C1c1ccccc1
10,6.95 min,CCCCCC(=O)Cc1cc(OC)c(O)c2c1C(=O)Oc1cc(O)c(C(=O)O)c(CCCCC)c1O2
11,7.89 min,CC1CCC2(C(=O)O)CCC3(C)C(=CCC4C5(C)CCC(O)C(C)(C)C5CCC43C)C2C1C (configuration not stated)
12,5.09 min,COc1cc(C)c(C(=O)O)c(O)c1C
13,3.87 min,Cc1cc(=O)c2c(O)c3c(cc2o1)C(=O)C(=O)C=C3O
14,7.84 min,COC(=O)c1c(C)c(C)c(OC(=O)c2c(C)c(C)c(O)c(C=O)c2O)c(C)c1O
15,6.17 min,COc1cc(O)cc(C)c1C(=O)Oc1cc(C)c(C(=O)Oc2cc(C)c(C(=O)O)c(O)c2)c(O)c1
16,5.62 min,Cc1cc(O)c(C=O)c2c1C(=O)Oc1c(CO)c(O)c(C(=O)O)c(C)c1O2
17,6.99 min,COC1=CC(=O)c2c(OC(C)=O)c3c(c(O)c2C1=O)CC(C)OC3=O (configuration not stated)
18,7.88 min,C=C1C(=O)OC(CCCCCCCCCCCCC)C1C(=O)O (configuration not stated)
19,4.58 min,Cc1cc(O)cc2c1C(=O)Oc1cc3c(c(O)c1O2)C(=O)OC3
20,4.33 min,Cc1cc(O)c(C=O)c(O)c1
21,6.54 min,CCCCCc1cc(O)cc(OC)c1C(=O)Oc1c(O)cc(CCCCC)c(C(=O)O)c1O

row,SMILES,LC retention time
1,O=C1C(O)=C(c2ccccc2)C(=O)C(O)=C1c1ccccc1,5.71 min
2,CCCCCc1cc(O)cc(O)c1C(=O)O,5.24 min
